{"source": "patent US20080142759A1", "about": "“Pyridine N-Oxide Based Azo Dyes And Their Metal Complexes For Use In Optical Layers For Optical Data Recording” (priority 2004, published 2008)", "experiment": "Thermal decomposition by DSC", "format": "physicochemical", "description": "Sharp threshold of thermal decomposition within the required temperature range characterizes the new pyridine N-oxide based azo dyes which are assumed to be desirable for the application in optical layers for optical data recording."}
{"smiles": "CCN1C(O)=C(/N=N/c2c(O)ccc[n+]2[O-])C=CC1=C(C#N)C#N", "note": "[(12)]", "values": [{"measurement": "DSC: dec. at", "setting": "DSC", "value": 260, "unit": "°C"}, {"measurement": "Dec.Pt", "setting": "Table 1 summary", "value": 260, "unit": "°C"}]}
